Measured values: patent publication US5597919A, “Pyrimidinyl or Pyridinyl alkenyl amine compounds” (priority 1995, dated 1997)

What was measured:
[1] = system: dopamine release from synaptosomes of the striatal area of rat brain; type: biochemical, rat (Sprague-Dawley); details: for Dopamine Release Emax (% nicotine): rat, striatal synaptosomes
[2] = system: ganglionic-type neuronal nicotinic receptors (rat pheochromocytoma clonal line PC 12); assay: Interaction with ganglia: 86Rb+ efflux in PC12 cells; type: cell-based

Structure (SMILES) | EC50 [1] [µM] | Dopamine Release Emax (% nicotine) [1] [% nicotine] | Ganglion Effect (% nicotine) [2] [% nicotine]
NCC/C=C/c1cncnc1.O=C(O)/C=C/C(=O)O [Sample No. 1, (E)-4-(5-pyrimidinyl)-3-butene-1-amine monofumarate] | 4.36 | 113 | 
CNCC/C=C/c1cncnc1 [Sample No. 2, (E)-N-methyl-4-(5-pyrimidinyl)-3-butene-1-amine] | 5.8 | 77 | 1
COc1cncc(/C=C/CCN)c1 [Sample No. 3, (E)-4-[3-(5-methoxypyridin)yl]-3-butene-1-amine monofumarate] | 4 | 95 | 0
CNCCC#Cc1cccnc1 [Sample No. 4, N-Methyl-4-(3-pyridinyl)-3-butyne-1-amine] | 8.35 | 87 | 59
CNCC/C=C\c1cccnc1 [Sample No. 5, (Z)-metanicotine] | 11.3 | 88 | 
CNCC/C=C/c1ccc(C)nc1 [Sample No. 6, (E)-N-methyl-4-[3-(6-methylpyrindin)yl]-3-butene-1-amine] | 0.219 | 60 | 4
CNCCCCc1cccnc1 [Sample No. 7, N-methyl-(3-1-pyridinyl)-butane-1-amine] |  | 72 | 31
CNCC/C=C/c1cccnc1 [Sample No. 8, (E)-metanicotine] | 1.47 | 80 | 
CN1CCC[C@H]1c1cccnc1 [Sample No. C-1, (S)-(-)-nicotine, reference compound] | 0.115 |  | 
